How the values were obtained:
GDC-0623 = compound: O=C(NOCCO)c1ccc2cncn2c1Nc1ccc(I)cc1F [GDC-0623]; assay: absolute IC70 (antiproliferative, propidium iodide); higher = less potent; conditions: exposure time: 4 days
Procedure: (§1)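 Modified propidium iodide survival/proliferation assay in 294 human tumor cell lines (2D monolayer for solid tumors, suspension for hematologic lines) after 4 days of continuous exposure to 10 concentrations in half-log steps from 0.001 to 30 µM. Absolute IC70 was fitted by four-parameter nonlinear regression of T/C × 100 (%) values; 30 µM is the top dose.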

[1] = compound: CCNC(=O)C#Cc1ccc2c(C(=Nc3ccc(CN(C)C)cc3)c3ccccc3)c(O)[nH]c2c1; assay: as above; conditions: exposure time: 4 days
Procedure: as §1

Test System	absolute IC70 (GDC-0623) [µM]	absolute IC70 [1] [µM]
RXF_2282	> 30	0.026
RXF_2516	8.07	0.164
SCLC-21H	> 30	0.031
SD1	> 30	0.004
SF268	> 30	1.33
SF295	> 30	8.84
SISO	> 30	0.715
SK-BR-3	> 30	4.07
SK-GT-2	> 30	2.8
SK-LMS-1	0.368	0.937
SK-MES-1	0.235	0.617
SK-OV-3	> 30	13.4
SK-UT-1B	5.79	1.4
SN12C	2.96	0.665
SNB-75	2.68	1.1
SNU-1	> 30	3
SNU-16	> 30	15.4
SNU-423	> 30	1.32
SNU-449	2.22	3.2

Test System	absolute IC70 (GDC-0623) [µM]	absolute IC70 [1] [µM]
SNU-475	> 30	3.55
SNU-601	> 30	3
SNU-620	> 30	0.225
SNU-739	> 30	1.38
SNU-878	18.8	9.32
SNU-899	0.035	0.515
SR	> 30	0.013
SU-DHL-1	> 30	0.406
SU-DHL-4	> 30	0.22
SW403	0.00771	0.841
SW480	0.0239	0.101
SW579	0.204	0.279
SW620	0.01	0.069
SW948	> 30	3
SW1463	0.0143	0.323
SW1710	3.74	0.525
SXFO_678	> 30	0.087
SXFS_1301	> 30	3.85
Saos-2	> 30	0.593

Test System	absolute IC70 (GDC-0623) [µM]	absolute IC70 [1] [µM]
SiHa	> 30	4.8
T24	0.046	0.353
T47D	> 30	6.84
TE671	> 30	1.36
TFK-1	> 30	3.45
THP-1	0.047	0.084
TK10	> 30	0.873
TT2609-C02	0.012	0.018
U-2-OS	0.53	0.162
U-251MG	0.783	1.18
U-266	> 30	1.7
U-937	> 30	0.348
U-2197	> 30	2.77
UO-31	1.62	0.527
UOC-M1	> 30	0.012
UXF_1138	> 30	0.006
VCAP	> 30	5.03
WSU-DLCL2	> 30	0.892

From the supplement of paper PMC10599287
